Measurements taken from US20190040447A1, “Assay for compounds having activity against influenza” (priority 2016, published 2019).

Target: RNA-dependent RNA polymerase (RdRp) comprised in an influenza viral ribonucleoprotein (RNP) complex (Influenza A virus, UniProt P03428+P03431+P03433)
Assay: Influenza filter RNP transcription/replication assay (HTS screen using the method of the invention)
Type: biochemical, Influenza virus (Influenza A/PR/8/34, Influenza B\Lee\40)
Settings: virus lysate containing native vRNP; which assay (transcription or replication) and which strain are not stated

O=C(O)[C@H]1[C@H]2CC[C@H]([C@H]3C[C@H]32)[C@@H]1Nc1nc(-c2n[nH]c3ncc(F)cc23)ncc1F [(−)-(1R,2S,4R,5S,6S,7S)-7-((5-fluoro-2-(5-fluoro-1H-pyrazolo[3,4-b]pyridin-3-yl)pyrimidin-4-yl)amino)tricyclo[3.2.2.02,4]nonane-6-carboxylic Acid]
IC50: 0.2 nM
